The values below are quoted from earlier work in patent US12138351B2, “Pharmaceutical composition for oral administration comprising aminopyrimidine derivative or pharmaceutically acceptable salt, hydrate, or solvate thereof” (Janssen Biotech, Inc., priority 2020, dated 2024).

Where two headings read alike, the source gives them in different places.

The target in one data set is wild-type EGFR (Homo sapiens, UniProt P00533). As to conditions: known irreversible EGFR TKI.
The test system of data set [1] is T790M single active mutation (EGFRm) and double mutation. The settings on record: known irreversible EGFR TKI.
For data set [2] the following is noted: compared to the compound in the form of free-base.

wild-type EGFR, sequence (P00533 25-1210): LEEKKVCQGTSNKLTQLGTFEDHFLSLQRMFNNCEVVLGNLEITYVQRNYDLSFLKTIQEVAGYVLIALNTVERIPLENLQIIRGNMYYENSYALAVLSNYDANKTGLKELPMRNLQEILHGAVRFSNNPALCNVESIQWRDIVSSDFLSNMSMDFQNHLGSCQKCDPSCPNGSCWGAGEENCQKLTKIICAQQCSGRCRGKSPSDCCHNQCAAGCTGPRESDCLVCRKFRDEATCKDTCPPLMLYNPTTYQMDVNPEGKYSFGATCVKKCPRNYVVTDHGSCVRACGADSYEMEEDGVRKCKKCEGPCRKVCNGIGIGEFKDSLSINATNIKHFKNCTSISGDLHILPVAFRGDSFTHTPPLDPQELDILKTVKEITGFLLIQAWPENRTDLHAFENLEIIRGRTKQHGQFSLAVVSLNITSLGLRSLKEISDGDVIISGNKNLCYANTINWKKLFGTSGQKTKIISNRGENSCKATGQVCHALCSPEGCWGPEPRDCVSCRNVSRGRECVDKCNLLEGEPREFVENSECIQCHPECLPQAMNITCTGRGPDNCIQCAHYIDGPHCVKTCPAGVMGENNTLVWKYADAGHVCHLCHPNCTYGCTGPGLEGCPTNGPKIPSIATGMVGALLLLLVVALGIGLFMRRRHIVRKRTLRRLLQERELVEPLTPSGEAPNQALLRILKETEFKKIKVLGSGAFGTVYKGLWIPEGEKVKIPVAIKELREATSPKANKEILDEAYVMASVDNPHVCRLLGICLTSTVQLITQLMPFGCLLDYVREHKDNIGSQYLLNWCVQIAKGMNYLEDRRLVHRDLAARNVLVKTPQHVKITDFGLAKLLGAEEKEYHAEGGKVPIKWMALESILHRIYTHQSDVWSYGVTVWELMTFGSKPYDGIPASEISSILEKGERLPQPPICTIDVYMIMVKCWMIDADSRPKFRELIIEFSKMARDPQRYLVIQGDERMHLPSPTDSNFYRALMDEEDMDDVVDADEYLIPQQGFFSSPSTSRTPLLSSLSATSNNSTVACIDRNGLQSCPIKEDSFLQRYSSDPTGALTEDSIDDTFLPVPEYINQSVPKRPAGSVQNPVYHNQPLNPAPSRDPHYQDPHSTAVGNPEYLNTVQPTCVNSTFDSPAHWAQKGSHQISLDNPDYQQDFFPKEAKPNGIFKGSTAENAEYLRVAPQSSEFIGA

With `C=CC(=O)Nc1cc(Nc2nccc(-n3cc(CN(C)C)c(-c4ccccc4)n3)n2)c(OC)cc1N1CCOCC1` [Lazertinib, N-(5-(4-(4-((dimethylamino)methyl)-3-phenyl-1H-pyrazol-1-yl)pirimidine-2-ylamino)-4-methoxy-2-morpholinophenyl)acrylamide], the “effect on wild-type EGFR” value at wild-type EGFR was “less effect”. In addition, the “inhibitory activity on T790M single active mutation (EGFRm) and double mutation” value in data set [1] is “strong inhibitory activity”.
“N-(5-(4-(4-((dimethylamino)methyl)-3-phenyl-1H-pyrazol-1-yl)pirimidine-2-ylamino)-4-methoxy-2-morpholinophenyl)acrylamide mesylate [Lazertinib mesylate]”: the stability entry in data set [2] is “excellent”. In addition, the bioavailability entry is, setting by setting: (co-administration with, e.g., an antacid, as well as administration alone) “excellent bioavailability”; (compared to the compound in the form of free-base) “excellent”.
